Source: patent US8673882B2, “Inhibitors of autotaxin” (University of Tennessee Research Foundation, priority 2011, dated 2014)

How the values were obtained:
breast and colon cancers = conditions: xenograft models, Zhang et al 2009; cited from earlier work
[1] = test system: MM1 hepatocarcinoma cells; assay: Invasion of mesothelial cell monolayer by MM1 cells; type: cell-based, rat
Source text: (§1) Cancer metastasis is a complex process that cannon be accurately modeled in vitro. Models that utilize cellular monolayers for the invasion of carcinoma cell come the closest to the situation in vivo. Two different cell monolayers, mouse mesothelium and human vascular endothelium were used to examine the role of ATX in the invasion of MM1 hepatocarcinoma cells and the reduction of such invasion by the chemical compounds of the present application. The mesothelial monolayer is an accepted model for invasion of body cavities lined by serous cells whereas, the HUVEC monolayer is considered to be an in vitro model of hematogenous invasion of carcinomas.
(§2) Highly invasive MM1 cells originally isolated from the AH130 rat hepatoma cells were utilized in these studies. The cells were grown in suspension in DMEM supplemented with 10% fetal bovine serum, 2 mM glutamine, 100 units/ml penicillin and 10 μg/ml streptoinycin. Mesothelial cells were isolated and cultured from C57BL/6 mice. Human umbilical cord vascular endothelial cells (HUVEC) were obtained from VEC Technologies Inc., (Rensselaer, N.Y., USA) and were grown in MCDB-131 complete medium containing 10% fetal bovine serum. 90 μg/ml heparin, 10 ng/ml EGF, 1 μg/ml hydrocortisone, 0.2 mg/ml EndoGrowth supplement, 100 units/ml penicillin G, 100 μg/ml streptomycin and 25 μg/ml amphotericin B (all from VEC Technologies). Tumor cell invasion was performed by seeding 1.3×10^5 HUVECs (passage 7) into each well of a 12-well plate pre-coated with 0.2% gelatin (Sigma) and cultured for 2 days to form a confluent monolayer. Mesothelial cells harvested from two-three mice were initially plated in 6-well plates and grown to confluency in DMEM medium supplemented with 10% fetal bovine serum in the presence of 100 units/ml penicillin G and 10 μg/ml streptomycin. When confluent, the mesothelial cells were split into three equal aliquots (˜5×10^4 cells each) and plated to three wells of a 12-well plate and grown to confluence.
Invasion of MM1 cells of Example 53 was determined and the effect of compounds of the present application in reducing the invasion was determined. For all invasion assays, MM1 cells were pre-stained with 2 μg/ml calcein AM (Invitrogen, USA) for 2 h, rinsed once, and seeded at a density of 5×10^4 cells/well over the monolayers. […] The number of tumor cells that penetrated the monolayer was photographed under a NIKON TiU inverted microscope using phase-contrast and fluorescence illumination in a minimum of five non-overlapping fields at 100× magnification. The fluorescent images were overlayed on top of the phase contrast images using the Elements BR software (version 3.1x) and the invaded MM1 cells showing the characteristic flattened morphology in the plane of focus underneath the monolayer were counted. […]

[2] = test system: MM1 hepatocarcinoma cells; assay: Invasion of HUVEC monolayer by MM1 cells; type: cell-based, rat; conditions: 1.5 μM LPC; FIG. 14
Source text: as §1, §2
Invasion of MM1 cells of Example 53 was determined and the effect of compounds of the present application in reducing the invasion was determined. For all invasion assays, MM1 cells were pre-stained with 2 μg/ml calcein AM (Invitrogen, USA) for 2 h, rinsed once, and seeded at a density of 5×10^4 cells/well over the monolayers. Tumor cells were left to invade the HUVEC monolayer for 24 h in MCDB-131 complete media containing 1% serum with or without addition of 1.5 μM LPC. MM1 cells were plated on the mesothelial monolayers in 2% fetal bovine serum-supplemented DMEM medium in the presence of 100 units/ml penicillin G and 10 μg/ml streptomycin with or without 1.5 μM LPC (5 μM for the mesothelium cells) and invasion was allowed to proceed for 20 h. The day after MM1 cell seeding, non-invaded tumor cells were removed by repeated five rinses of the HUVEC monolayer (three rinses for the mesothelial monolayers) with PBS (containing Ca^2+ and Mg^2+) followed by fixation with 10% buffered formalin. The number of tumor cells that penetrated the monolayer was photographed under a NIKON TiU inverted microscope using phase-contrast and fluorescence illumination in a minimum of five non-overlapping fields at 100× magnification. The fluorescent images were overlayed on top of the phase contrast images using the Elements BR software (version 3.1x) and the invaded MM1 cells showing the characteristic flattened morphology in the plane of focus underneath the monolayer were counted. […]

In the case of LPA bromophosphonate [LPA-BP], the “metastasis of breast and colon cancers” value (breast and colon cancers) is listed as “inhibit the metastasis”.
In the case of “lysophosphatidylcholine [LPC, reference compound]”, the “effect of LPC on invasion in the co-culture” value ([1]; FIG. 12d, mesothelial cell layers) is reported as “increases invasion in a dose-dependent manner”.
With `CCCCCCCCCCCCCc1ccc2cc(CP(=O)(OC)OC)ccc2c1` [Compound 33b, Dimethyl-6-tridecylnaphthalen-2-yl-methylphosphonate] the “MM1 cell invasion of the mesothelial monolayer” value ([1]; with LPC, FIG. 12 panel E) was “inhibition” and the “LPC-dependent invasion of the HUVEC monolayer” value [2] was “blockage”.
